Common to all, as to format: binding
Test [1] concerns the target T1, kinases (KINOMEscan panel) (Homo sapiens, UniProt Q04771).
T1 sequence (Q04771 21-509): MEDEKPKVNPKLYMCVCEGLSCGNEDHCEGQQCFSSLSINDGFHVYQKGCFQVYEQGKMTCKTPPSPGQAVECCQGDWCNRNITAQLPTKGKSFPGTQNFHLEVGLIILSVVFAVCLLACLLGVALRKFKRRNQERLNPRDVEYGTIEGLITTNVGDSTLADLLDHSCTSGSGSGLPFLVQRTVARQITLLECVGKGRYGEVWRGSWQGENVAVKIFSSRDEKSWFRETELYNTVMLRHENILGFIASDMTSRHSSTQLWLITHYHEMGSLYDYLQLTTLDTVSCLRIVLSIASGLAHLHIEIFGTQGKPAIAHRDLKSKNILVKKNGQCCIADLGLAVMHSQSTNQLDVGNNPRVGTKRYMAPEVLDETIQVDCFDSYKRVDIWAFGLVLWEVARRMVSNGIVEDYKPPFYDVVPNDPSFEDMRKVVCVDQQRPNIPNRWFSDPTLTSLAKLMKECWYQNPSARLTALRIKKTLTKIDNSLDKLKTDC
The conditions noted are these: ACVR1; NEW KINOMEscan.

Test [2] deals with kinases (KINOMEscan panel) (Homo sapiens, UniProt P57059). The conditions noted are these: kinase SIK1; NEW KINOMEscan.
kinases (KINOMEscan panel) (Homo sapiens, UniProt P57059), sequence (P57059 whole entry): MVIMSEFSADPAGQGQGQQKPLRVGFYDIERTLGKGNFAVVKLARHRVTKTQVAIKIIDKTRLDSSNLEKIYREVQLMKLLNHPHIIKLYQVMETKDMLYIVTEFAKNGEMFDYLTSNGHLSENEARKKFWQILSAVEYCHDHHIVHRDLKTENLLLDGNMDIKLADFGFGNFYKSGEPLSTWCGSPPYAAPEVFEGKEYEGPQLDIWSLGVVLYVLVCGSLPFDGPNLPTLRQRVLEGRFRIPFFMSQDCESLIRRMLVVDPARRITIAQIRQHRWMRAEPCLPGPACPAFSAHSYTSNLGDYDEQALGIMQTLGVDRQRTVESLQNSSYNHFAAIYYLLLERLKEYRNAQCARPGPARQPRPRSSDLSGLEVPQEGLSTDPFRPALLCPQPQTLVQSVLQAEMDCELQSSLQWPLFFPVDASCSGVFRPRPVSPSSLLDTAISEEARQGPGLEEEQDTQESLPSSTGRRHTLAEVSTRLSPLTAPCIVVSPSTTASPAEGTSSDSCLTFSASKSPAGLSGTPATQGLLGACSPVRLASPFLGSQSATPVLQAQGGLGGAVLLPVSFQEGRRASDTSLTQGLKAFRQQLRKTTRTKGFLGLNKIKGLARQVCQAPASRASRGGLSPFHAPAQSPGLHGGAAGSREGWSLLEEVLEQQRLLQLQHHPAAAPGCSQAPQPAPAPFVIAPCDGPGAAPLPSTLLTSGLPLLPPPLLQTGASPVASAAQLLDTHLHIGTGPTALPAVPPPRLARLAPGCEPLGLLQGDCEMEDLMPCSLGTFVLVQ
For test [3], the target named is T2, kinases (KINOMEscan panel) (Homo sapiens, UniProt P57058).
T2 sequence (P57058 1-714): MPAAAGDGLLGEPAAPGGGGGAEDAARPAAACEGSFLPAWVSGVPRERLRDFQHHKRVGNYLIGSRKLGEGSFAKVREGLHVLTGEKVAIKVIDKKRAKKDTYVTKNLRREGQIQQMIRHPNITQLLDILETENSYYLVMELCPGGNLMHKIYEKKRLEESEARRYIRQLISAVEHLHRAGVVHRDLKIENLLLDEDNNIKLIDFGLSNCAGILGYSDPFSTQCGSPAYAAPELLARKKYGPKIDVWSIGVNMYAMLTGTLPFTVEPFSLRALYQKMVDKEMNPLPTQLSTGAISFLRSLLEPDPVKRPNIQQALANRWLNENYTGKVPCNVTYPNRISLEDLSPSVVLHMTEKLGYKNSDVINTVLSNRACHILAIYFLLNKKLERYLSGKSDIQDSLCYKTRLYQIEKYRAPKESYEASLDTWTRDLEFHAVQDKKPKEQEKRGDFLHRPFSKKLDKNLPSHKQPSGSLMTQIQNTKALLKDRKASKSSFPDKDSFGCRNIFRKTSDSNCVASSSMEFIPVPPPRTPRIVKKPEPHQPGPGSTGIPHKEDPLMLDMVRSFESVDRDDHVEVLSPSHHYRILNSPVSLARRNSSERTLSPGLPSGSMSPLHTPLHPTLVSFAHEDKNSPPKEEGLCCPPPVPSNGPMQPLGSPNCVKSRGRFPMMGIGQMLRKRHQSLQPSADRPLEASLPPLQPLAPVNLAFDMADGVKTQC
The conditions noted are these: kinase HUNK; NEW KINOMEscan.

The target of test [4] is kinases (KINOMEscan panel) (Homo sapiens, UniProt P09619). As to conditions: NEW KINOMEscan.
kinases (KINOMEscan panel) (Homo sapiens, UniProt P09619), sequence (P09619 33-1106): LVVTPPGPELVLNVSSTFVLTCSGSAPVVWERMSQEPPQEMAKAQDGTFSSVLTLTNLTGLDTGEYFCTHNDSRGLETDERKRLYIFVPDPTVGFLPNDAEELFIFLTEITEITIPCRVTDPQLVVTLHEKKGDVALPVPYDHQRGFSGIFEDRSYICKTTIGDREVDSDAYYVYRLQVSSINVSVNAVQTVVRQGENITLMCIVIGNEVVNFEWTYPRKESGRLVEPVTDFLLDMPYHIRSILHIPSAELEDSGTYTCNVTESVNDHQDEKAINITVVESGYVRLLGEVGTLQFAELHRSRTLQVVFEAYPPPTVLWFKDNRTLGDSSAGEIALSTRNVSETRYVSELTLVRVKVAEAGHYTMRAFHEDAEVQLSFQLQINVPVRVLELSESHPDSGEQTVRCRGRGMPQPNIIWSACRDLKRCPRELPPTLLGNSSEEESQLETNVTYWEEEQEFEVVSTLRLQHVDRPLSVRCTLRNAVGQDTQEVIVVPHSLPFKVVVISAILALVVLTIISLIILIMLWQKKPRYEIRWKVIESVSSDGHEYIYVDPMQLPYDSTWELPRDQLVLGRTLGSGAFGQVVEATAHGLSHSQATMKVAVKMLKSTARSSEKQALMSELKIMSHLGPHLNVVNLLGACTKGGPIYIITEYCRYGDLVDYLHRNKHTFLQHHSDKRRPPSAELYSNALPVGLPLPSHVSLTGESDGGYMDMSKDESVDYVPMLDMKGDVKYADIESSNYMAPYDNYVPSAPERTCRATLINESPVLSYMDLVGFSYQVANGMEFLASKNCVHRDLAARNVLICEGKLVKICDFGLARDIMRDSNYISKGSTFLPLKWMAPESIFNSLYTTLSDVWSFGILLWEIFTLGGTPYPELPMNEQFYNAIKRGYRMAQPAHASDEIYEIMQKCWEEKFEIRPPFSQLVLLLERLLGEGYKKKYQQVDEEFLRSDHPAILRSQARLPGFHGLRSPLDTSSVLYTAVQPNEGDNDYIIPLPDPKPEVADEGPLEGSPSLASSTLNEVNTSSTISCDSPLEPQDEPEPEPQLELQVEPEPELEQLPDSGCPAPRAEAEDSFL
The target in test [5] is kinases (KINOMEscan panel) (Homo sapiens, UniProt P08069). As to conditions: kinase IGF1R; NEW KINOMEscan.
kinases (KINOMEscan panel) (Homo sapiens, UniProt P08069), sequence (P08069 31-1367): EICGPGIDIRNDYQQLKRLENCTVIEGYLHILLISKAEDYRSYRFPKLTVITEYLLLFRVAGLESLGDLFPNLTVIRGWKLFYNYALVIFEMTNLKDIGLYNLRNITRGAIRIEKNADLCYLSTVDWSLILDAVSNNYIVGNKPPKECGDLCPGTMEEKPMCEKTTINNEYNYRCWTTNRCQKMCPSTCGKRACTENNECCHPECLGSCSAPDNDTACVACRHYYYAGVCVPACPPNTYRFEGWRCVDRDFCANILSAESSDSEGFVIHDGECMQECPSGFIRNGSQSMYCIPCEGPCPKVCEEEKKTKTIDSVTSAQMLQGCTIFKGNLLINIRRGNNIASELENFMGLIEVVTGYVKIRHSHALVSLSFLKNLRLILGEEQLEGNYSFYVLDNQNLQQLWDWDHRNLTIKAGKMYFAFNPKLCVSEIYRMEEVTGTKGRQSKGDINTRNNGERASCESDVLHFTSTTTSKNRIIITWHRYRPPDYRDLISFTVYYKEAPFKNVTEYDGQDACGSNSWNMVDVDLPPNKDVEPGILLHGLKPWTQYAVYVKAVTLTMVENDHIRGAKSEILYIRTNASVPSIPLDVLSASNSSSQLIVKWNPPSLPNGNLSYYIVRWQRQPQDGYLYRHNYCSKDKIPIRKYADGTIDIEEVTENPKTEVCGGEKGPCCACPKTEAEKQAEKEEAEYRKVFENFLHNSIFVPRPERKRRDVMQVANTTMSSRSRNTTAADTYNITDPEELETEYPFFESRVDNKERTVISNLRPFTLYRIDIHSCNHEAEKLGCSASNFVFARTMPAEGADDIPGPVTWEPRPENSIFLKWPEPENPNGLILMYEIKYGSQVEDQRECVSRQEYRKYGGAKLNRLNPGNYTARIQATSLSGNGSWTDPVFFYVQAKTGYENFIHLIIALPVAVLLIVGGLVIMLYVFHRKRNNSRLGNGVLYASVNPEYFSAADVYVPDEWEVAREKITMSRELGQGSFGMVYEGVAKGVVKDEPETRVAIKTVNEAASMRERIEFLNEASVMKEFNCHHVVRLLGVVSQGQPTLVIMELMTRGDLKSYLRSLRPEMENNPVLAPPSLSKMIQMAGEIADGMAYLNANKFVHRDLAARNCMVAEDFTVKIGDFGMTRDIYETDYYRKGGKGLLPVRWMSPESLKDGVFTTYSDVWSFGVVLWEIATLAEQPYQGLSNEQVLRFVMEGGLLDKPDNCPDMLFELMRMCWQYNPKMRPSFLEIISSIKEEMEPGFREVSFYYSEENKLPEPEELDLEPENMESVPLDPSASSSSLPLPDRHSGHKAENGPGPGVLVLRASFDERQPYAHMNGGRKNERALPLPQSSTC
Test [6] addresses T3, kinases (KINOMEscan panel) (Homo sapiens, UniProt Q9UBE8).
T3 sequence (Q9UBE8 1-527): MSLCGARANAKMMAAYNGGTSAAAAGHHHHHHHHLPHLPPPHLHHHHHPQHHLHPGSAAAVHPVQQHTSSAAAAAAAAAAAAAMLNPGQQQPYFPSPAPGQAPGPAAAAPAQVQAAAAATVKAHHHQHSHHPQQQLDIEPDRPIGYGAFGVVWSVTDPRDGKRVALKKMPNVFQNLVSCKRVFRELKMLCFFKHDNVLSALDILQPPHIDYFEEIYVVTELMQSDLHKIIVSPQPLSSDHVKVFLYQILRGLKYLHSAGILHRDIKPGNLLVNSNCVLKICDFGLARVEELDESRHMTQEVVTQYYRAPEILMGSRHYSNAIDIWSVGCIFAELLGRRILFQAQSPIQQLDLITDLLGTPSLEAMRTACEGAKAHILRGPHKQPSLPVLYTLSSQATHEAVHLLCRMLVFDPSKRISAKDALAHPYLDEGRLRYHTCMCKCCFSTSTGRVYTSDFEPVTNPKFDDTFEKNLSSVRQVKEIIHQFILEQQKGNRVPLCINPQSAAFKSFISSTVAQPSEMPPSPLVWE
As to conditions: NLK; NEW KINOMEscan.

In the case of `Cc1cccc(-c2nc(Nc3ccc4nn(C)cc4c3)c3ccccc3n2)n1` [NK167], the “KINOMEscan ACVR1” value in test [1] was 0. The “KINOMEscan SIK1” value in test [2] is on record as 1. The “KINOMEscan HUNK” value in test [3] stood at 0. Besides, the “KINOMEscan PDGFRB” value in test [4] is 19. Further, the “KINOMEscan IGF1R” value in test [5] was determined as 0. Also, the “KINOMEscan NLK” value in test [6] is 0.

Turning to `Cc1cccc(-c2nc(N(C)c3ccc4ncsc4c3)c3ccccc3n2)n1` [NK-161], in test [1], the “KINOMEscan ACVR1” value came out at 0. Also, the “KINOMEscan SIK1” value in test [2] was found to be 12. Also, in test [3], the “KINOMEscan HUNK” value is 4. The “KINOMEscan PDGFRB” value in test [4] was determined as 21. In addition, in test [5], the “KINOMEscan IGF1R” value was 14. For the same compound, the “KINOMEscan NLK” value in test [6] stood at 0.

The values above are taken from publication PMC9851200, “Multiparameter phenotypic screening for endogenous TFEB and TFE3 translocation identifies novel chemical series modulating lysosome function” (Autophagy, 2022).
